Measured values: PubChem BioAssay (NCI)
“And” between values parts separate entries of the source, which are not always exact repeats. Identical values can stand only once.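 All cell lines were grown in 96-well plates and treated with compound for 48 hours. GI50 marks 50% less growth. At the TGI there is no net growth.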

tested on: MDA-MB-468 breast; test: DTP human tumour cell line panel, 48 h

Q: How did the GI50 turn out when `Nc1nccc2c1ccn2-c1ccc(NC(=O)c2ccc(N3CCOCC3)c(C(F)(F)F)c2)cc1` was run?
A: 2160 nM

Q: What about the TGI of the same compound?
A: 16500 nM

Q: With `CCOC(=O)C(=Cc1cccc(Cl)c1)C(=O)OCC` as the compound, how does the GI50 read?
A: 1810 nM

Q: What about the TGI of the same compound?
A: 3850 nM

Q: With `N#C/C=C(\c1ccc([N+](=O)[O-])cc1)n1nnc2cc(Cl)c(Cl)cc21` as the compound, how does the GI50 read?
A: 1370 nM

Q: And the TGI?
A: 3330 nM

Q: With `O=C(c1ccc(F)c(F)c1Nc1ccc(I)cc1F)N1CC(O)([C@@H]2CCCCN2)C1` as the compound, how does the GI50 read?
A: 3750 nM and 1790 nM

Q: And the TGI?
A: 16200 nM and > 8970 nM

Q: What does the source list for `O=C1c2c(c3c4cc(Br)ccc4[nH]c3c3ccc4ccccc4c23)C(=O)N1CCN1CCCCC1`?
A: GI50: 1620 nM; TGI: 3520 nM

Q: What does the source list for `CC1(C)OCCn2c1nc1c(N3CCOCC3)nc(-c3cnc(N)nc3)nc12`?
A: GI50: 339 nM; TGI: 2600 nM

Q: How did the GI50 turn out when `COc1cc(C2c3cc4c(cc3C(O)C(CO)C2CO)OCO4)cc(OC)c1OC` (stereo not drawn) was run?
A: 270 nM

Q: `COc1cccc2c1C(=O)c1c(O)c3c(c(O)c1C2=O)CC(O)(/C(C)=N/NC(=O)CCC(=O)N/N=C(\C)C1(O)Cc2c(O)c4c(c(O)c2C(OC2CC(N)C(O)C(C)O2)C1)C(=O)c1c(OC)cccc1C4=O)CC3OC1CC(N)C(O)C(C)O1` (stereo not drawn) was tested. Which GI50 did it give?
A: 101 nM

Q: And the TGI?
A: 340 nM

Q: What does the source list for `O=c1cc2oc3cc(O)c(O)cc3c(-c3ccccc3O)c-2cc1O`?
A: GI50: 12600 nM; TGI: 42600 nM

Q: Which GI50 does the source give for `COc1ccc2[nH]cc(-c3nc(-c4c[nH]c5ncccc45)cs3)c2c1` here?
A: 2690 nM

Q: And the TGI?
A: > 100000 nM

Q: What does the source list for `COc1cc(-c2nn(-c3cccc(NC(=O)Nc4ccc(Cl)c(Cl)c4)c3)cc2-c2ccncc2)ccc1Cl`?
A: GI50: 567 nM; TGI: 2270 nM

Q: `Cc1csc(Nc2nc(-c3cccc(Br)c3)nc(C(Cl)(Cl)Cl)n2)n1` was tested. Which GI50 did it give?
A: 354 nM

Q: What about the TGI of the same compound?
A: 1550 nM

Q: Which GI50 does the source give for `O=c1[nH]c(=O)n(C2CC(O)C(CO)O2)cc1CO` (stereo not drawn) here?
A: > 100000 nM

Q: And the TGI?
A: > 100000 nM

Q: `CCCCCCNC(=O)c1nc(-c2ccccc2)oc1Cc1ccc(OP(=O)(O)O)cc1` was tested. Which GI50 did it give?
A: 14300 nM

Q: And the TGI?
A: 28200 nM

Q: What does the source list for `C[C@H]1Oc2cc(cnc2N)-c2c(nn(C)c2C#N)CN(C)C(=O)c2ccc(F)cc21`?
A: GI50: 30800 nM; TGI: > 100000 nM

Q: What does the source list for `COc1ccncc1C#Cc1cncc(C(=O)Nc2ccc(CN3CCN(C)CC3)c(C(F)(F)F)c2)c1`?
A: GI50: 24700 nM; TGI: > 100000 nM

Q: With `Nc1c(C(=O)Nc2cccc(Br)c2)sc2nc3c(cc12)C(=O)CCC3` as the compound, how does the GI50 read?
A: 259 nM

Q: And the TGI?
A: > 100000 nM

Q: How did the GI50 turn out when `Cn1cc(C2=C(c3cn(C)c4cc(C(N)=O)ccc34)C(=O)NC2=O)c2ccccc21` was run?
A: 1180 nM

Q: What about the TGI of the same compound?
A: 15900 nM

Q: What does the source list for `CS(=O)(=O)CCCn1c(=O)c(Oc2ccc(F)cc2F)cc2cnc(NC3CCOCC3)nc21`?
A: GI50: > 25000 nM; TGI: > 25000 nM

Q: `Cn1cnc([N+](=O)[O-])c1S(=O)(=O)Oc1ccccc1` was tested. Which GI50 did it give?
A: 1950 nM

Q: And the TGI?
A: 4680 nM

Q: Which TGI does the source give for `N#Cc1c(-c2ccc(F)cc2)c(-c2ccc(F)cc2)nn(CCO)c1=O` here?
A: > 100000 nM

Q: What does the source list for `O=C(c1c(F)ccc(NS(=O)(=O)N2CC[C@@H](F)C2)c1F)c1c[nH]c2ncc(-c3cnc(C4CC4)nc3)cc12`?
A: GI50: 3930 nM and 3670 nM; TGI: > 10000 nM and 27900 nM

Q: `N=c1ccn2c(n1)OC1C(O)C(CO)OC12` (stereo not drawn) was tested. Which GI50 did it give?
A: > 100000 nM

Q: What about the TGI of the same compound?
A: > 100000 nM

Q: `CC(=O)c1cc2c(o1)C(=O)c1ccccc1C2=O` was tested. Which GI50 did it give?
A: 912 nM and 1260 nM

Q: And the TGI?
A: 2540 nM and 2800 nM

Q: Which results are given for `C=CC(=O)N1CCC(C2CCNc3c(C(N)=O)c(-c4ccc(Oc5ccccc5)cc4)nn32)CC1` (stereo not drawn)?
A: GI50: 752 nM; TGI: 8520 nM

Q: For `COc1cc(CNCCCN2C(=O)c3ccc4c5c(ccc(c35)C2=O)C(=O)N(CCCNCc2cc(OC)c(OC)c(OC)c2)C4=O)cc(OC)c1OC`, which GI50 is on record?
A: 153 nM

Q: What about the TGI of the same compound?
A: 406 nM

Q: `Cc1ccc(/C=C/c2c(C(=O)/C=C/c3ccc(C(F)(F)F)cc3)c(C)nc3ccccc23)cc1` was tested. Which GI50 did it give?
A: 1840 nM

Q: What about the TGI of the same compound?
A: 3530 nM

Q: Which results are given for `COC12C=C/C(=C(/C(=O)OCc3ccncc3)C(=O)CCCCCCCCC3(OC)C=C/C(=C(/C(=O)OCc4ccncc4)C(=O)CCCCCCCC1)O3)O2`?
A: GI50: 635 nM; TGI: 2000 nM

Q: `CC(C)=CCc1cc(O)cc2c1OC(C=C(C)C)C1=C2C(=O)C2=C(NCCS2(=O)=O)C1=O` (stereo not drawn) was tested. Which GI50 did it give?
A: 2540 nM

Q: And the TGI?
A: 7890 nM

Q: Which GI50 does the source give for `Cc1nc2cnc(N)c(C#Cc3cncc(C(=O)Nc4ccc(CN5CCN(C)CC5)c(C(F)(F)F)c4)c3)c2nc1C` here?
A: 2250 nM

Q: What about the TGI of the same compound?
A: 15900 nM
